The source of these data is paper PMC10029098 (Chembiochem : a European journal of chemical biology, 2022).

The nature of series [1]: Thermodynamic solubility measurement. The format is physicochemical. The conditions noted are these: potassium phosphate buffer, pH 7.4, aqueous buffer, thermodynamic from solid.
In series [2] the target is PD1/PDL1 interaction (Homo sapiens, UniProt Q15116). The experiment in a line: PD1 ImmunoBlocking ELISA. In kind it is biochemical. Background: An ELISA detects its analyte on a solid surface through an enzyme-linked reagent.
Chain of PD1/PDL1 interaction (Q15116 25-167 limits assumed): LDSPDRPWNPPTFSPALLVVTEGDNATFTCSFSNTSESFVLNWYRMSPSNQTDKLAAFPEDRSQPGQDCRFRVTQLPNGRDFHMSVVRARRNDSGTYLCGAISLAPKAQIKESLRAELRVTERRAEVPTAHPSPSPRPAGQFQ
Series [3] has as its target PD1 (Homo sapiens, UniProt Q15116). The experiment in a line: UV/Vis-colorimetric PDL1-competitive binding kinetics assay.
Series [4] in a line: Far-UV CD spectroscopy, thermal denaturation. The conditions noted are these: calculated at 293K from best-fitted melting curves of thermal denaturation recorded by CD; phosphate buffer 15 mM, pH 6.5; RC = random coil. The format is physicochemical.

What is called solubility (thermodynamic) is solubility found after equilibrating the solid with the medium. The EC50 is the concentration giving half of the maximal effect. Higher therefore signals lower potency in that assay. The Ki is the equilibrium dissociation constant of an inhibitor or competing ligand from its target. A high value points to lower affinity.

Where “and” joins values, the source holds several entries; their conditions need not be identical. Equal entries are not always repeated. Ends that are not written are not given here. Bounds are passed on as bounds.

Chain of PD1 (Q15116 25-167 limits assumed): as above

The sequence RWVARRDYRGDMGFDYWVWE [1d] showed a solubility (thermodynamic) in series [1] of 3400 ± 100 µM.

With RWVARRDYRFDMGFDYWVWE [1e], in series [2], the EC50 was < 600 nM and 290 nM. Moreover, the solubility (thermodynamic) in series [1] is 900 ± 100 µM. This sequence also gave a Ki in series [3] of 41 nM.

RWVWRRDYRFDMGFDYWVWE [2c]: the “%-Fold, hairpin folded fraction (χF)” value in series [4] is listed as 54 ± 1%.

RWCARRDYRFDMGFDYWGWE [1c] returned an EC50 in series [2] of 3700 ± 1020 nM. The solubility (thermodynamic) in series [1] was 300 ± 100 µM.

With RWVWRRDYRGDMGFDYWVWE [2b], in series [1], the solubility (thermodynamic) was 600 ± 100 µM. In series [4], the “%-Fold, hairpin folded fraction (χF)” value is on record as 81 ± 1%.

Sequence RWVWGGGGKKGGGGWVWE [2a] came in with a solubility (thermodynamic) in series [1] of 5800 ± 200 µM. Besides, the “%-Fold, hairpin folded fraction (χF)” value in series [4] is 87 ± 1%.
